Holding throughout (type): cell-based
The target in test [1] is T1, Glucocorticoid receptor (Homo sapiens, UniProt P04150).
T1 sequence (P04150 whole entry): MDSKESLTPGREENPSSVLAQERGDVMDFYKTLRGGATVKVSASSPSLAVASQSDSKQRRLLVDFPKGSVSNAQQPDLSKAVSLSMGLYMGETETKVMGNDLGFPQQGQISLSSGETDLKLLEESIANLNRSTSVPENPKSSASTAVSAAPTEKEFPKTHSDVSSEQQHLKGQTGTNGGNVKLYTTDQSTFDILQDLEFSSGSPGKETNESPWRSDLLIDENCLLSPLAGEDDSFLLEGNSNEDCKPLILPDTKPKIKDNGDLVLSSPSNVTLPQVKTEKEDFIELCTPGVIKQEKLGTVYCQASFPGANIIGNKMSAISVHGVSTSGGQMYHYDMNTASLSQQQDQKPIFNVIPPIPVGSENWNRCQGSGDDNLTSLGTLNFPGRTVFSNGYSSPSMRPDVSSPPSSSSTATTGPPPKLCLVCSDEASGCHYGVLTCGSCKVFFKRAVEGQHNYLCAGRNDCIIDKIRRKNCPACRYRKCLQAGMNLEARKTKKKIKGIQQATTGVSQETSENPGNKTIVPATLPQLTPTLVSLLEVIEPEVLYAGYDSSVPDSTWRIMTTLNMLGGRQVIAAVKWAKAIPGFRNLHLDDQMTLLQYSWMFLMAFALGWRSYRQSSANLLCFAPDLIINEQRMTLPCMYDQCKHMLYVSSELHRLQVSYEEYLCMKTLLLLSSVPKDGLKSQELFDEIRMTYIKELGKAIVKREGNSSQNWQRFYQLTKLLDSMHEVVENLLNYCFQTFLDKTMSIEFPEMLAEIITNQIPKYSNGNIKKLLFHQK
Nature of the test: Antagonist activity at GR in human PBMC assessed as reduction in dexamethasone-induced FKBP5 gene expression incubated for 6 hrs by RT-qPCR method. (Real-time PCR tracks product formation cycle by cycle.)

Test [2] has as its target T2, Glucocorticoid receptor (Rattus norvegicus, UniProt P06536).
T2 sequence (P06536 whole entry): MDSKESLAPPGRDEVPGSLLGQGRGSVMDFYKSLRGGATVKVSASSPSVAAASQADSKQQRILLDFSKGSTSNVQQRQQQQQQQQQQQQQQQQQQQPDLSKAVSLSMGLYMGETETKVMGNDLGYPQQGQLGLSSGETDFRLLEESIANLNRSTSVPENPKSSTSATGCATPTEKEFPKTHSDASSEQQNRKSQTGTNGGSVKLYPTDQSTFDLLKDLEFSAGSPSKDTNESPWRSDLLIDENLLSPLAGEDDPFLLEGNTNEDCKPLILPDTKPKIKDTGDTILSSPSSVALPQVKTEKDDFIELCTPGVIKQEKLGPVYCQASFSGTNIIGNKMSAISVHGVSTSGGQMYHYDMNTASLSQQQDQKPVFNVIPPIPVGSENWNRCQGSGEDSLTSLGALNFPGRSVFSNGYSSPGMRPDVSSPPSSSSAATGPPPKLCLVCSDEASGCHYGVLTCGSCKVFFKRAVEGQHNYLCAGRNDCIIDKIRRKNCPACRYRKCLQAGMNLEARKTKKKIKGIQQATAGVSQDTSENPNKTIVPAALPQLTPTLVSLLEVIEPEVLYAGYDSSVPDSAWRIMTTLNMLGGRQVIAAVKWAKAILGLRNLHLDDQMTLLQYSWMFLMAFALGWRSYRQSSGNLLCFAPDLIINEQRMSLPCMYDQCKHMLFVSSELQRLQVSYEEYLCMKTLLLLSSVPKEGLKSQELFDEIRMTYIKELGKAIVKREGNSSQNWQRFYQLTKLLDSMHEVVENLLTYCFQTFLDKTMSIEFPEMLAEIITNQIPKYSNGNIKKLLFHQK
Nature of the test: Antagonist activity at GR in rat PBMC assessed as reduction in dexamethasone-induced GILZ gene expression incubated for 24 hrs by RT-qPCR method.

For test [3], the target named is T3, Glucocorticoid receptor (Canis lupus familiaris, UniProt A0A8C0QLS2).
T3 sequence (A0A8C0QLS2 whole entry): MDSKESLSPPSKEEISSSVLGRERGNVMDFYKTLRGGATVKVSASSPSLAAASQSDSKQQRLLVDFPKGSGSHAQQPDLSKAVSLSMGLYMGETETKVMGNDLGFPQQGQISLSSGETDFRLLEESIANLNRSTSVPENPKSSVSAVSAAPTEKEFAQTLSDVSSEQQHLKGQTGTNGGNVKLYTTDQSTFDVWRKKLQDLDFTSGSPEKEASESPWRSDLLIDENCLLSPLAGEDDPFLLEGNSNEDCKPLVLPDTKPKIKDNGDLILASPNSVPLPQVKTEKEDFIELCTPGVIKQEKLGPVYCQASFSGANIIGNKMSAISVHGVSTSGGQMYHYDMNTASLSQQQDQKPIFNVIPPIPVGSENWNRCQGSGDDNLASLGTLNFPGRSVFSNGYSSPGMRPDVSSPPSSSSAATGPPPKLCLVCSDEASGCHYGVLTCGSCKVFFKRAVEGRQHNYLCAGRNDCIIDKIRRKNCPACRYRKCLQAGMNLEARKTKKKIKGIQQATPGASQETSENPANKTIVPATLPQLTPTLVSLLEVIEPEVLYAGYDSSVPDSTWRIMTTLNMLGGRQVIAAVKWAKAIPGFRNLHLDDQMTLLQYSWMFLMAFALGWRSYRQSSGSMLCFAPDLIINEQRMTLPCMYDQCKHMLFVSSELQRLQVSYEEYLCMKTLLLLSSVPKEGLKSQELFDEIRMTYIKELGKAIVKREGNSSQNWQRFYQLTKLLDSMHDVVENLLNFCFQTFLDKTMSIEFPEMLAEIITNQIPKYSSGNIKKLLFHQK
Nature of the test: Antagonist activity at GR in dog PBMC assessed as reduction in dexamethasone-induced FKBP5 gene expression incubated for 6 hrs by RT-qPCR method.

For the compound `CC(C)N(C)c1ccc([C@H]2C[C@@]3(C)[C@@H](CC[C@@]3(O)C#CC(C)(C)C)[C@@H]3CCC4=CC(=O)CC[C@@H]4[C@H]32)cc1`, the IC50 at Glucocorticoid receptor [1] came to 19.5 nM; on Glucocorticoid receptor [2] it was 59.4 nM; at Glucocorticoid receptor [3], 24.5 nM.

As a reminder, the IC50 is the concentration needed to halve the response being measured.

Source of the values: ChEMBL document CHEMBL4145686, “Discovery of a Potent and Selective Steroidal Glucocorticoid Receptor Antagonist (ORIC-101)” (J Med Chem, 2018).
